Literature values in patent publication US9149457B2, “Nutraceutical composition for PDE4 inhibition, enhanced dopamine metabolism and long term potentiation” (priority 2013, dated 2015).

How the values were obtained:
acetylcholine = settings: references 33-35
[1] = system: phosphodiesterase enzymes (PDE 1 through 5); settings: references 24-27
[2] = references 46-47
[3] = references 7-13

For `CC(=O)O[C@H](CC(=O)[O-])C[N+](C)(C)C` [Acetyl-L-carnitine, acetyl-L-carnitine], the “levels of acetylcholine in the brain” value (acetylcholine) is listed as “increase the levels”.

In the case of `O=c1cc(-c2ccc(O)c(O)c2)oc2cc(O)cc(O)c12` [Luteolin, luteolin], the “inhibition of phosphodiesterase enzymes that degrade 3',5'-cyclic nucleotides” value [1] is given as “can inhibit”.

For `O=C(/C=C/C=C/c1ccc2c(c1)OCO2)N1CCCCC1` [Piperine, piperine], the bioavailability of resveratrol [2] is given as “enhance the bioavailability of resveratrol”.

In the case of `COc1ccc(C2CNC(=O)C2)cc1OC1CCCC1` (stereo not shown) [rolipram], the side effect [3] is listed as “emesis (vomiting) at low doses”.
